The results in this text go back to EP0816361A2, “Preparation of substituted alkenoic acids” (ELI LILLY AND COMPANY, priority 1996, dated 1998).

For this data set, the system named is TXA2 agonist activity. Kind of data set: Absence of Agonist Activity (pressor response in pithed rats). It is filed as in vivo.

SMILES strings stand for the structures.

With `O=C(O)CCCC/C=C(\c1ccc(-c2nc(C(=O)NCCCCC3CCCCC3)co2)cc1)c1cccnc1` [Example 2, (E)-7-[4-[4-[[(4-Cyclohexylbutyl)amino]carbonyl]-2-oxazolyl]phenyl]-7-(3-pyridyl)hept-6-enoic Acid], the pressor response entry (i.v. administration, doses up to 10 mg/kg) was “absence of a pressor response”.
Consider `O=C(O)CCC/C=C\C[C@H]1[C@@H]2CC[C@@H](C2)[C@@H]1NS(=O)(=O)c1ccccc1` [Example S-145], for which the mean arterial pressure result (one minute after dosing at 0.1 mg/kg i.v.) is reported as “transient, but significant, increase”.
